Source: patent publication USRE39485E1 (Aesgen, Inc., priority 1993, dated 2007)
“And” between values parts separate entries of the source, which are not always exact repeats. Equal entries are not always repeated.

Experiments:
[1] = oral dose of 0.3 g/kg; cited from earlier work
[2] = tested on: adults undergoing allogeneic bone marrow transplantation for hematologic malignancies; conditions: cited from earlier work
[3] = tested on: patients experiencing mucositis of the oropharynx following a course of chemotherapy; assay: Oral glutamine swish and swallow trial in patients with chemotherapy induced oral mucositis; format: in vivo, human; design: key to Maximum Grade of Mucositis: 0: no mucositis; 1: painful mucositis not necessitating a change in oral intake; 2A: painful mucositis restricting intake to soft foods; 2B: painful mucositis restricting oral intake to liquids; 3: mucositis preventing oral intake
Text: Patients experiencing mucositis of the oropharynx following a course of chemotherapy were offered the opportunity to enter this study if no other clinical parameters precluded receiving the same chemotherapy doses during the next course of treatment. […] Other carriers, flavor enhancers, gums, and suspending agents known in the art may be employed. The suspension was stored in a refrigerator during use for a maximum of 1 month. […] The severity of mucositis was graded as: 0, no mucositis; 1, painful mucositis not necessitating a change in oral intake; 2A, painful mucositis restricting intake to soft foods; 2B, painful mucositis restricting oral intake to liquids; and 3, mucositis preventing oral intake (CALGB criteria). Maximum grade of mucositis and total number of days of mucositis were compared by the paired t-test. All patients gave written informed consent, and the trial was approved by the Institutional Review Board of the University of Minnesota. Ten adults, 5 men and 5 women, were entered in the study. […] One patient with AIDS and Kaposi's sarcoma was treated with doxorubicin by constant iv infusion over 5 days with bolus DTIC and vincristine. One patient with breast cancer was treated with doxorubicin, cyclophosphamide, and 5-FU, iv bolus.

[4] = tested on: animals given methotrexate; conditions: administered after methotrexate; cited from earlier work
[5] = 0.57 g/kg/day in parenteral nutrition solutions for 5 days; cited from earlier work
[6] = tested on: rats given abdominal radiotherapy; conditions: glutamine group vs glycine enriched group; cited from earlier work
[7] = tested on: rats treated with methotrexate; conditions: glutamine supplementation of an elemental diet; cited from earlier work
[8] = parenteral glutamine supplementation vs none

Q: What does the source list for NC(=O)CC[C@H](N)C(=O)O [glutamine, L-glutamine]?
A: clinical toxicity or measurable toxic metabolites (ammonia or glutamate) [1]: no evidence of clinical toxicity or generation of measurable toxic metabolites; severity of oral mucositis (stomatitis) ([2]; high dosage of intravenous glutamine vs no glutamine): no difference; episodes of clinical infections [2, 8]: fewer episodes of clinical infections; median hospitalization [2, 8]: shorter median hospitalization; nitrogen balance [2, 8]: better nitrogen balance; Subjective Improvement of Mucositis ([3]; Chemotherapy + Glutamine 2 gm/m^2 BID vs previous identical chemotherapy without glutamine, one line per patient (1-10)): Yes (9×) and No; Maximum Grade of Mucositis ([3]; chemotherapy + glutamine, L-glutamine 2 g/m^2 swish and swallow twice daily, one line per patient (1-10), CALGB criteria): 1 (7×) and 0 (3×); toxicity of the glutamine ([3]; oral glutamine 2 g/m^2 twice daily, ambulatory patients): absence of any detectable toxicity; patients in whom the maximum grade of mucositis remained the same (grade 1) ([3]; with glutamine supplementation): 2/10; patients in whom the total number of days of mucositis decreased ([3]; with glutamine supplementation): 9/10; median score of maximum grade of mucositis ([3]; with glutamine supplementation (2 without), p=0.001): 1; total number of days of mucositis, mean (SEM) ([3]; with glutamine supplementation (10.1±1.2 without), p=0.001): 3.8 ± 1.0 days; patients in whom the maximum grade of mucositis decreased ([3]; with glutamine supplementation vs previous course, p=0.001): 8/10; patients in whom glutamine allowed chemotherapy doses that would otherwise have had to be reduced due to mucositis ([3]; with the addition of glutamine): 8/10; patients who felt that the mucositis was less severe ([3]; with the addition of glutamine): Nine of the 10; survival rate, enteral vs parenteral supplementation [4]: better survival rate; tolerability [5]: well tolerated; mucosal structure [6]: more normal mucosal structure; survival rate [6]: higher survival rate; incidence of bacteremia [7]: lower incidence of bacteremia; mortality [7]: less mortaility; mucosal weight of the jejunum and colon [7]: increased mucosal weight of the jejunum and colon; survival [7]: longer survival; weight loss [7]: less weight loss
